The source of these data is patent publication US20250064789A1, “KETOAMIDE DERIVATIVES AND PHARMACEUTICAL USES THEREOF” (priority 2022, published 2025).

The target in one test is recombinant SARS-CoV-2 M^pro (Severe acute respiratory syndrome coronavirus 2 (2019-nCoV) (SARS-CoV-2), UniProt P0DTD1). The test is described as follows: Inhibition of SARS-CoV-2 M^pro enzyme activity (fluorescent substrate assay). It is filed as biochemical. The conditions noted are these: inhibition of SARS-CoV-2 M^pro enzyme activity; values given in μM; read-out: IC50.
Consider `Cc1cccc(CNC(=O)C(=O)[C@@H](Cc2ccccc2)NC(=O)[C@@H](C)OCc2ccccc2)n1` [Compound 28], for which the half-inhibitory concentration (IC50) is > 5 µM.
For the compound `C[C@@H](OCc1ccccc1)C(=O)N[C@H](Cc1ccccc1)C(=O)C(=O)NCc1ncccn1` [Compound 29], the concentration for half-maximal inhibition (IC50) was > 5 µM.
Consider `C[C@@H](OCc1ccccc1)C(=O)N[C@H](Cc1ccccc1)C(=O)C(=O)NCc1ccncn1` [Compound 30], for which the IC50 is > 5 µM.
On to `C[C@@H](OCc1ccccc1)C(=O)N[C@H](Cc1ccccc1)C(=O)C(=O)N[C@H](C)c1ccccn1` [Compound 31], for which the IC50 was > 5 µM.
For the compound `C[C@@H](OCc1ccccc1)C(=O)N[C@H](Cc1ccccc1)C(=O)C(=O)NC(c1ccccc1)c1ccccn1` (stereo partly shown) [Compound 32], the IC50 was > 5 µM.
Same read-out and setting: to `C[C@@H](OCc1ccccc1)C(=O)N[C@H](Cc1ccccc1)C(=O)C(=O)NCc1ncccc1Cl` [Compound 34] belongs > 5 µM; to `COc1cccnc1CNC(=O)C(=O)[C@@H](Cc1ccccc1)NC(=O)[C@@H](C)OCc1ccccc1` [Compound 39], > 5 µM; to `C[C@@H](OCc1ccccc1)C(=O)N[C@H](Cc1ccccc1)C(=O)C(=O)N(C)Cc1ccccn1` [Compound 41], > 2.5 µM.

The same test, now with this note: inhibition of SARS-CoV-2 M^pro enzyme activity; values in nM; read-out: IC50.
For `C[C@@H](OCc1ccccc1)C(=O)N[C@H](Cc1ccccc1)C(=O)C(=O)NCc1ccccn1` [Compound 1, (R)-3-((R)-2-(benzyloxy)propionamido)-2-oxo-4-phenyl-N-(pyridin-2-ylmethyl)butyramide], the IC50 was found to be 0.0146 ± 0.0013 µM.
On the same count and under the same terms, to `C[C@@H](OCc1cc(F)cc(F)c1)C(=O)N[C@H](Cc1ccccc1)C(=O)C(=O)NCc1ccccn1` [Compound 2] belongs 0.0176 ± 0.0004 µM; to `C[C@@H](OCc1c(F)cccc1F)C(=O)N[C@H](Cc1ccccc1)C(=O)C(=O)NCc1ccccn1` [Compound 3], 0.411 ± 0.0282 µM; to `C[C@@H](OCc1ccc(OC(F)(F)F)cc1)C(=O)N[C@H](Cc1ccccc1)C(=O)C(=O)NCc1ccccn1` [Compound 4], 0.0204 ± 0.0018 µM.
With `C[C@@H](OCc1cccc(OC(F)(F)F)c1)C(=O)N[C@H](Cc1ccccc1)C(=O)C(=O)NCc1ccccn1` [Compound 5], the IC50 is 0.0154 ± 0.0007 µM.
Consider `C[C@@H](OCc1ccccc1F)C(=O)N[C@H](Cc1ccccc1)C(=O)C(=O)NCc1ccccn1` [Compound 6], for which the IC50 worked out at 0.0483 ± 0.0012 µM.
As to `C[C@@H](OCc1cccc(F)c1)C(=O)N[C@H](Cc1ccccc1)C(=O)C(=O)NCc1ccccn1` [Compound 7], the IC50 is 0.0285 ± 0.0009 µM.
As to `C[C@@H](OCc1ccc(F)cc1)C(=O)N[C@H](Cc1ccccc1)C(=O)C(=O)NCc1ccccn1` [Compound 9], the IC50 was determined as 0.0121 ± 0.0025 µM.
With `C[C@H](OCc1ccccc1)C(=O)N[C@H](Cc1ccccc1)C(=O)C(=O)NCc1ccccn1` [Compound 10], the half-maximal inhibitory concentration (IC50) stood at 0.113 ± 0.0321 µM.
Regarding `C[C@@H](OCc1ccc(Cl)c(Cl)c1)C(=O)N[C@H](Cc1ccccc1)C(=O)C(=O)NCc1ccccn1` [Compound 12], the IC50 was determined as 0.0123 ± 0.0008 µM.
The same measure, in the same setting: to `C[C@@H](OCc1ccc(Cl)cc1)C(=O)N[C@H](Cc1ccccc1)C(=O)C(=O)NCc1ccccn1` [Compound 13] belongs 0.0143 ± 0.0004 µM.
Still for that read-out and setting: the value for `Cc1ccc(CO[C@H](C)C(=O)N[C@H](Cc2ccccc2)C(=O)C(=O)NCc2ccccn2)cc1` [Compound 14] was 0.0193 ± 0.0028 µM; that for `C[C@@H](OCc1cc(F)cc(Cl)c1)C(=O)N[C@H](Cc1ccccc1)C(=O)C(=O)NCc1ccccn1` [Compound 15] was 0.0098 ± 0.0001 µM; that for `COc1ccc(CO[C@H](C)C(=O)N[C@H](Cc2ccccc2)C(=O)C(=O)NCc2ccccn2)cc1F` [Compound 16] was 0.0189 ± 0.0017 µM.
On the same count and under the same terms, to `CC(C)(OCc1ccc(OC(F)(F)F)cc1)C(=O)N[C@H](Cc1ccccc1)C(=O)C(=O)NCc1ccccn1` [Compound 17] belongs 0.0198 ± 0.0002 µM.
With `CC(C)(OCc1ccc(Cl)cc1)C(=O)N[C@H](Cc1ccccc1)C(=O)C(=O)NCc1ccccn1` [Compound 18], the concentration for half-maximal inhibition (IC50) is 0.0137 ± 0.002 µM.
Turning to `CC(C)(OCc1cc(F)cc(Cl)c1)C(=O)N[C@H](Cc1ccccc1)C(=O)C(=O)NCc1ccccn1` [Compound 19], the IC50 amounted to 0.0452 ± 0.0012 µM.
With `CC(C)(OCc1ccc(F)c(F)c1)C(=O)N[C@H](Cc1ccccc1)C(=O)C(=O)NCc1ccccn1` [Compound 20], the IC50 worked out at 0.0152 ± 0.0002 µM.
The same measure, in the same setting: the value for `COc1ccc(COC(C)(C)C(=O)N[C@H](Cc2ccccc2)C(=O)C(=O)NCc2ccccn2)cc1F` [Compound 21] was 0.0269 ± 0.0039 µM; that for `CC(C)(OCc1ccc(F)cc1)C(=O)N[C@H](Cc1ccccc1)C(=O)C(=O)NCc1ccccn1` [Compound 22] was 0.0186 ± 0.0017 µM.
The same measure, in the same setting: the value for `O=C(NCc1ccccn1)C(=O)[C@@H](Cc1ccccc1)NC(=O)C1(OCc2ccc(Cl)cc2)CC1` [Compound 25] was 0.0249 ± 0.0003 µM.
`CC(C)[C@@H](OCc1ccc(F)cc1)C(=O)N[C@H](Cc1ccccc1)C(=O)C(=O)NCc1ccccn1` [Compound 26]: the IC50 was 0.0139 ± 0.0002 µM.
The same measure, in the same setting: the value for `C[C@@H](OCc1ccccc1)C(=O)N[C@H](Cc1ccccc1)C(=O)C(=O)NCc1cnccn1` [Compound 27] was 0.8858 ± 0.0002 µM; that for `C[C@@H](OCc1ccccc1)C(=O)N[C@H](Cc1ccccc1)C(=O)C(=O)NCc1ccc(Cl)cn1` [Compound 36] was 0.0309 ± 0.0002 µM.
As for `C[C@@H](OCc1ccccc1)C(=O)N[C@H](Cc1ccccc1)C(=O)C(=O)NCc1ccc(C(F)(F)F)cn1` [Compound 38], the IC50 worked out at 0.7963 ± 0.0011 µM.
In the case of `C[C@@H](OCc1ccc(F)cc1)C(=O)N[C@H](Cc1ccccc1)C(=O)C(=O)NCc1ccc(Cl)cn1` [Compound 42], the IC50 is 0.0176 ± 0.0004 µM.
Turning to `CC(C)(OCc1ccc(Cl)cc1)C(=O)N[C@H](Cc1ccccc1)C(=O)C(=O)NCc1ccc(Cl)cn1` [Compound 43], the IC50 is 0.0202 ± 0.0025 µM.
On to `C[C@@H](OCc1ccc(Cl)c(Cl)c1)C(=O)N[C@H](Cc1ccccc1)C(=O)C(=O)NCc1ccc(Cl)cn1` [Compound 44], for which the IC50 was 0.0217 ± 0.0021 µM.
With `C[C@@H](OCc1ccc(Cl)cc1)C(=O)N[C@H](Cc1ccccc1)C(=O)C(=O)NCc1ccc(Cl)cn1` [Compound 45], the IC50 was 0.0147 ± 0.001 µM.
For `C[C@@H](OCc1cc(F)cc(Cl)c1)C(=O)N[C@H](Cc1ccccc1)C(=O)C(=O)NCc1ccc(Cl)cn1` [Compound 46], the IC50 is 0.0133 ± 0.0001 µM.
Regarding `C[C@@H](OCc1cccc(OC(F)(F)F)c1)C(=O)N[C@H](Cc1ccccc1)C(=O)C(=O)NCc1ccc(Cl)cn1` [Compound 47], the IC50 is 0.0141 ± 0.0001 µM.
As to `CC[C@@H](OCc1ccc(F)cc1)C(=O)N[C@H](Cc1ccccc1)C(=O)C(=O)NCc1ccc(Cl)cn1` [Compound 48], the IC50 was determined as 0.0309 ± 0.0003 µM.
Take `CC(C)[C@@H](OCc1ccc(F)cc1)C(=O)N[C@H](Cc1ccccc1)C(=O)C(=O)NCc1ccc(Cl)cn1` [Compound 49]: the IC50 is 0.0147 ± 0.0004 µM.
On to `C[C@@H](OCc1ccc(F)cc1)C(=O)N[C@H](Cc1ccc2ccccc2c1)C(=O)C(=O)NCc1ccc(Cl)cn1` [Compound 53], for which the IC50 came out at 0.1878 ± 0.0007 µM.
For the compound `O=C(COc1ccc(F)cc1)N[C@H](Cc1ccccc1)C(=O)C(=O)NCc1ccccn1` [Compound 54], the IC50 was found to be 0.2984 ± 0.0029 µM.
Consider `COc1ccc(OC(C)C(=O)N[C@H](Cc2ccccc2)C(=O)C(=O)NCc2ccccn2)cc1` (stereo partly shown) [Compound 57], for which the IC50 was 0.351 ± 0.0068 µM.
The same measure, in the same setting: the value for `CN(OCc1ccccc1)C(=O)N[C@H](Cc1ccccc1)C(=O)C(=O)NCc1ccccn1` [Compound 58, (R)-3-(3-(benzyloxy)-3-methylureido)-2-oxo-4-phenyl-N-(pyridin-2-ylmethyl)butyramide] was 0.1009 ± 0.0001 µM.
Same read-out and setting: the value for `C[C@@H](NC(=O)c1ccc(F)cc1)C(=O)N[C@H](Cc1ccccc1)C(=O)C(=O)NCc1ccc(Cl)cn1` [Compound 59] was 0.0266 ± 0.0018 µM; that for `C[C@@H](NC(=O)c1cc(F)cc(Cl)c1)C(=O)N[C@H](Cc1ccccc1)C(=O)C(=O)NCc1ccc(Cl)cn1` [Compound 60] was 0.0249 ± 0.0001 µM; that for `C[C@@H](NC(=O)COc1ccccc1)C(=O)N[C@H](Cc1ccccc1)C(=O)C(=O)NCc1ccccn1` [Compound 61] was 0.0118 ± 0.0001 µM.
Regarding `C[C@@H](NC(=O)Cc1cc2ccccc2o1)C(=O)N[C@H](Cc1ccccc1)C(=O)C(=O)NCc1ccccn1` [Compound 62], the IC50 was found to be 0.0278 ± 0.0009 µM.
Turning to `COc1ccc(CCCC(=O)N[C@H](C)C(=O)N[C@H](Cc2ccccc2)C(=O)C(=O)NCc2ccccn2)cc1` [Compound 63], the IC50 is 0.0196 ± 0.0003 µM.
As to `C[C@@H](NC(=O)Cc1cc(C(C)(C)C)nn1-c1ccccc1)C(=O)N[C@H](Cc1ccccc1)C(=O)C(=O)NCc1ccccn1` [Compound 64], the IC50 came out at 0.0161 ± 0.0002 µM.
Same read-out and setting: to `C[C@@H](NC(=O)C(C#N)Cc1ccccc1)C(=O)N[C@H](Cc1ccccc1)C(=O)C(=O)NCc1ccccn1` (stereo partly shown) [Compound 65] belongs 0.0212 ± 0.0008 µM; to `C[C@@H](NC(=O)CCc1ccccc1)C(=O)N[C@H](Cc1ccccc1)C(=O)C(=O)NCc1ccccn1` [Compound 66], 0.0117 ± 0.0001 µM; to `COc1ccc(CCC(=O)N[C@H](C)C(=O)N[C@H](Cc2ccccc2)C(=O)C(=O)NCc2ccccn2)cc1` [Compound 67], 0.0173 ± 0.0016 µM.
Consider `CC(C)c1ccc(OCC(=O)N[C@H](C)C(=O)N[C@H](Cc2ccccc2)C(=O)C(=O)NCc2ccccn2)cc1` [Compound 68], for which the IC50 was determined as 0.0124 ± 0.0011 µM.
On the same count and under the same terms, the value for `C[C@@H](NC(=O)COc1ccc(OC(F)(F)F)cc1)C(=O)N[C@H](Cc1ccccc1)C(=O)C(=O)NCc1ccccn1` [Compound 69] was 0.0177 ± 0.0015 µM; that for `C[C@@H](NC(=O)COc1ccccc1F)C(=O)N[C@H](Cc1ccccc1)C(=O)C(=O)NCc1ccccn1` [Compound 70] was 0.0229 ± 0.0003 µM; that for `C[C@@H](NC(=O)COc1ccc(Cl)c(Cl)c1)C(=O)N[C@H](Cc1ccccc1)C(=O)C(=O)NCc1ccccn1` [Compound 71] was 0.0109 ± 0.0005 µM.
For the compound `C[C@@H](NC(=O)c1cc2ccccc2o1)C(=O)N[C@H](Cc1ccccc1)C(=O)C(=O)NCc1ccccn1` [Compound 72], the IC50 came out at 0.0277 ± 0.0041 µM.
The same measure, in the same setting: the value for `C[C@@H](NC(=O)C(C)(C)c1ccccc1)C(=O)N[C@H](Cc1ccccc1)C(=O)C(=O)NCc1ccccn1` [Compound 73] was 0.0258 ± 0.0005 µM.
In the case of `C[C@@H](NC(=O)C1(c2ccccc2)CC1)C(=O)N[C@H](Cc1ccccc1)C(=O)C(=O)NCc1ccccn1` [Compound 74], the IC50 came to 0.0233 ± 0.0004 µM.

The IC50 is the midpoint of a concentration-inhibition curve.
